In ChEMBL document CHEMBL1201862, “PubChem BioAssay data set” (2004):
The source made the active and inactive calls. Cut-off read from the data, not from the text of the source, for most assays here: actives have a measured EC50 and inactives only a lower limit.

Assays:
[1] = microbe, parasite or virus in culture; type: functional; details: Mycobacterium tuberculosis
Protein RecA = target: T1, Protein RecA (Mycobacterium tuberculosis, UniProt P9WHJ3); assay: Fluorescence Cell-Free Homogeneous Dose Retest to Identify Inhibitors of RecA-Intein Splicing Activity. [Related pubchem assays (depositor defined):AID2097, AID2223, AID489010, AID492950]; type: functional
T1 sequence (P9WHJ3 whole entry): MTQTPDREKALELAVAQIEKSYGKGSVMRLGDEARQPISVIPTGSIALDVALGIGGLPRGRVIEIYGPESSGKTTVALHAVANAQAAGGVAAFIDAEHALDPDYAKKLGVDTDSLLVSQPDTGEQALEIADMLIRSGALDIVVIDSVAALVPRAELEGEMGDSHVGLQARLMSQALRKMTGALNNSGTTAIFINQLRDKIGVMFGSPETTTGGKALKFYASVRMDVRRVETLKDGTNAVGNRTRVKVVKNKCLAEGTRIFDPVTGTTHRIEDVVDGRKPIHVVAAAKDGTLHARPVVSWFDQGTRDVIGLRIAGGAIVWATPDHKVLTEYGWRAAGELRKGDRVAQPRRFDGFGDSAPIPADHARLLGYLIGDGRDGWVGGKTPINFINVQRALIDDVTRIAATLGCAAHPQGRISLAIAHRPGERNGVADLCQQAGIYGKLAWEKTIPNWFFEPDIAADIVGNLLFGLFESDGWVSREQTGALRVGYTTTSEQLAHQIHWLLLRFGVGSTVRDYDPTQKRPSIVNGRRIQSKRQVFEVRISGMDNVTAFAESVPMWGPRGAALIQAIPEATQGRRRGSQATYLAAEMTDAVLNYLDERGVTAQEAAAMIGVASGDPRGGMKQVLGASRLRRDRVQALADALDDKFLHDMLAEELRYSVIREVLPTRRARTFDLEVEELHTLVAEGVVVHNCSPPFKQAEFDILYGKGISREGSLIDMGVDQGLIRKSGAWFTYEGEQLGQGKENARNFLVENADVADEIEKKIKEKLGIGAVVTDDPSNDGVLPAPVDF

[2] = target: T2, Replicative DNA helicase DnaB (Mycobacterium tuberculosis, UniProt P9WMR3); assay: DnaB intein splicing inhibitors, dose response, biochemical, cell-free fluorescence (AID 449749); type: functional
T2 sequence (P9WMR3 whole entry): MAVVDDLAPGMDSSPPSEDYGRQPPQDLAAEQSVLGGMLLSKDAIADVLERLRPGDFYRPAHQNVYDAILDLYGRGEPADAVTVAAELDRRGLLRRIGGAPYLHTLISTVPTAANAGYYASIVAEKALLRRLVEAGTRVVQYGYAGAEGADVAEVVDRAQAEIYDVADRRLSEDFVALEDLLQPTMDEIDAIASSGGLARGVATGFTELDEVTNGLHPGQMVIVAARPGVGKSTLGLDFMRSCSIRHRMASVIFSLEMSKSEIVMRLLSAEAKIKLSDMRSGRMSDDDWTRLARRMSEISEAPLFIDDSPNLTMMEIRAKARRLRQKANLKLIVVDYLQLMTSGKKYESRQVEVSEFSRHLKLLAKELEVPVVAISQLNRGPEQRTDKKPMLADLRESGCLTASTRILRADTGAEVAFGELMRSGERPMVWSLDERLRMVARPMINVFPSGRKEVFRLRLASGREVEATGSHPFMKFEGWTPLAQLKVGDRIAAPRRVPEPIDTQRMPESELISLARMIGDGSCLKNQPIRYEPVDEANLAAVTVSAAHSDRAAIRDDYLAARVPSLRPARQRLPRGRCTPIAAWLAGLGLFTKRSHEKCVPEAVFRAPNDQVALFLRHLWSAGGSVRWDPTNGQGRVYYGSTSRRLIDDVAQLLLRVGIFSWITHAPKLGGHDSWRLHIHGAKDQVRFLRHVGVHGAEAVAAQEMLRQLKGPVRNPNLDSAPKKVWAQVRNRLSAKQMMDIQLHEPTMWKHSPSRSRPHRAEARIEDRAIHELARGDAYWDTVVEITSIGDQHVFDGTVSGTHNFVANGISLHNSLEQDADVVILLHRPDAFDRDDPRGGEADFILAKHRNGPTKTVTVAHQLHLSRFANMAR

H4 = assay: Luminescence Cell-Based Dose Response HTS to Identify Activators of 5'UTR Stem-Loop Driven Prion Protein mRNA Translation in H4 Neuroglioblastoma Cells. [Related pubchem assays: 1829 (Project Summary), 1814 (Primary HTS)]; type: functional; details: Homo sapiens
[3] = Luminescence Cell-Based Dose Response HTS to Identify Activators of Luciferase Translation or Activity in H4 […] Cells. [Related pubchem assays: 1829 (Project Summary), 1814 (Primary HTS)]; type: functional
[4] = Luminescence Cell-Based Dose Confirmation HTS to Identify Activators of 5'UTR Stem-Loop Driven Alpha-Synuclein mRNA Translation in H4 Neuroglioblastoma Cells. [Related pubchem assays: 1829 (Project Summary), 1814 (Primary HTS)]; type: functional
BJ [5] = assay: cells; type: functional, cell-based; details: Homo sapiens
BJ [6] = assay: cytotoxicity toward BJ-TERT fibroblasts, dose response, cell-based, RAS-independent, luminescence (AID 1933); type: functional; details: Homo sapiens
BJ [7] = assay: cytotoxicity toward BJ-TERT-LT-ST fibroblasts, dose response, cell-based, RAS-independent, luminescence (AID 1935); type: functional; details: Homo sapiens;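 note: BJ fibroblasts immortalized with TERT plus LT and ST oncogenes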
[8] = cytotoxicity toward DRD oncogenic fibroblasts, dose response, cell-based, non-viral oncogenic, luminescence (AID 1934); type: functional; details: Homo sapiens
[9] = Luminescence Cell-Based Dose Retest to Confirm Inhibitors of Cancer Stem Cells. [Related pubchem assays (depositor defined):AID2717, AID2721]; type: functional; details: Homo sapiens
[10] = cytotoxicity toward NIH3T3 fibroblasts, dose response, counter-screen, cell-based, ATP luminescence, mouse fibroblasts (AID 2010); type: functional;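 note: cells exposed to compound for about 90 hours before reading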
[11] = test system: Streptococcus sp. 'group A'; assay: growth inhibition of control SK(-) GAS strain, dose response, counter-screen for streptokinase expression inhibitor project, luminescence, kanamycin, BacTiterGlo, confirmation (AID 1900); type: functional, organism-based
Streptococcus = assay: Group A Streptococcus viability loss, dose response, counter-screen for streptokinase expression inhibitor project, luminescence, BacTiterGlo (AID 1915); type: functional, organism-based;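 note: potency for reduction of bacterial viability or growth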
[12] = NIH-3T3 fibroblast cytotoxicity, dose response, cytotoxicity control, cell-based, fluorescence, Alamar Blue, secondary assay (AID 2327); type: functional;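 note: NIH-3T3 mouse fibroblasts cultured with fluconazole at 8 µg/mL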
[13] = C. albicans growth with fluconazole, confirmation, fluorescence, retest (AID 2467); type: functional, cell-based
[14] = inhibitors of intracellular T. cruzi replication, confirmation, NIH3T3 host cells, beta-gal luminescence (AID 2044); type: functional, cell-based;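 note: intracellular parasites grown in NIH/3T3 mouse fibroblasts as host cells; luminescent beta-galactosidase reporter signal from transgenic T. cruzi replicating inside host cells; inhibitors lower the luminescence signal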
Streptokinase A = target: T3, Streptokinase A (Streptococcus pyogenes serotype M1, UniProt P10520); assay: S. pyogenes streptokinase expression inhibitors, potency, dose response, plasminogen activation absorbance, OD405 (AID 1914); type: functional, Streptococcus pyogenes M1 GAS;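 note: secreted streptokinase activity via plasminogen activation per viability signal from cell pellet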
T3 sequence (P10520 whole entry): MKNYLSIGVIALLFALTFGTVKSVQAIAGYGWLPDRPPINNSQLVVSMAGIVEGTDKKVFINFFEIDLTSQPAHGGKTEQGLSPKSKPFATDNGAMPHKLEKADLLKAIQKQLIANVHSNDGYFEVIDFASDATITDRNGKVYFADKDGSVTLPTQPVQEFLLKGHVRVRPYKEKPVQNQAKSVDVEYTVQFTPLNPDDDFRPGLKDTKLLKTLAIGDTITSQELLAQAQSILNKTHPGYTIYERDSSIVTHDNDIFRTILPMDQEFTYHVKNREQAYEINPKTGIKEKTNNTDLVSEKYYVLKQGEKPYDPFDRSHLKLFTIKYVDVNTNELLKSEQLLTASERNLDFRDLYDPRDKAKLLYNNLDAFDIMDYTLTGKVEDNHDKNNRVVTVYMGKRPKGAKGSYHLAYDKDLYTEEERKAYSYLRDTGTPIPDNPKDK

## O=C(Nc1ccc(Cl)cc1)N1CCN(c2ccc3nnc(-c4ccc(F)cc4)n3n2)CC1
[1]
  CC50: 19.3 µM (active)

## CCOC(=O)c1c(CC(C)C)csc1NC(=O)CCl
[1]
  CC50: > 40 µM (active)
Protein RecA
  EC50: 2.39 µM (active)
[2]
  AC50: 9.8 µM (active)

## CCOc1ccc(-c2nc(C)c(C(C)=O)n2O)cc1
H4
  EC50: 8.13 µM (active)
[3]
  EC50: 9.13 µM (active)
[4]
  EC50: 14.1 µM (active)

## COc1ccc(C2(c3ccc(OC)cc3)NC(=O)N(CC(=O)Nc3ccc(OC(F)F)cc3)C2=O)cc1
[1]
  CC50: 36.2 µM (active)

## CCC1=Nc2cc(C(=O)NCc3cccnc3)ccc2Sc2ccc(C)cc21
BJ [5]
  EC50: 101 µM (active)
BJ [6]
  EC50: 4.48 µM (active)
BJ [7]
  EC50: 16.6 µM (active)
[8]
  EC50: 3.06 µM (active)
[9]
  AC50: 0.493 µM (active)

## COc1ccc(-c2cc(C3CCN(Cc4cccc(C(F)(F)F)c4)CC3)[nH]n2)cc1
[1]
  CC50: 35.5 µM (active)
[10]
  EC50: > 60 µM (not active)
[11]
  EC50: 25.1 µM (active)
Streptococcus
  EC50: > 150 µM (not active)
[12]
  EC50: > 160 µM (inactive)
[13]
  EC50: > 38 µM (not active)
[14]
  EC50: 0.626 µM (active)
Streptokinase A
  EC50: > 150 µM (not active)

## Clc1ccc(SCc2cn3ccsc3n2)cc1
H4
  EC50: > 120 µM (not active)
[3]
  EC50: 21 µM (active)
[4]
  EC50: 89.9 µM (active)

## Cc1ccc(/C=C2\SC(=S)N(CCC(=O)N3CCCCC3)C2=O)cc1
BJ [5]
  EC50: > 150 µM (inconclusive)
BJ [6]
  EC50: > 150 µM (not active)
BJ [7]
  EC50: > 150 µM (not active)
[8]
  EC50: > 150 µM (not active)

## COc1cc2[nH]c3c(N4CCN(c5ccccn5)CC4)ncnc3c2cc1OC
[1]
  CC50: 11.1 µM (active)
